Measured values as given in ChEMBL document CHEMBL1152753, “BRACO19 analog dimers with improved inhibition of telomerase and hPot 1” (Bioorg Med Chem, 2009).
Active and inactive are the calls of the source. The calls are words filed in the database; no cut-off is given here.

How the values were obtained:
[1] = species on record: Homo sapiens; assay: Induction of G-quadruplex structure formation in human telomeric d[5'G3(T2AG3]-3' DNA assessed as major positive band at 290 nm at 1 mole ligand concentration by CD spectroscopy
[2] = species on record: Homo sapiens; assay: Stabilization of human telomeric d[5'G3(T2AG3]-3' assessed as change in melting temperature at 25 uM
[3] = (§1) Inhibition of human G-quadruplex [TTAGGG]4 DNA templet extension assessed as increase in ligand-induced polymerase stop products by Taq DNA polymerase stop assay
[4] = Inhibition of non G-quadruplex [TTAGAG]4 DNA templet extension assessed as ligand-induced polymerase stop products by Taq DNA polymerase stop assay
[5] = target: T1, Protection of telomeres protein 1 (Homo sapiens, UniProt Q9NUX5); assay: Inhibition of human 35S-labeled Pot1 binding to human telomeric DNA
T1 sequence (Q9NUX5 whole entry): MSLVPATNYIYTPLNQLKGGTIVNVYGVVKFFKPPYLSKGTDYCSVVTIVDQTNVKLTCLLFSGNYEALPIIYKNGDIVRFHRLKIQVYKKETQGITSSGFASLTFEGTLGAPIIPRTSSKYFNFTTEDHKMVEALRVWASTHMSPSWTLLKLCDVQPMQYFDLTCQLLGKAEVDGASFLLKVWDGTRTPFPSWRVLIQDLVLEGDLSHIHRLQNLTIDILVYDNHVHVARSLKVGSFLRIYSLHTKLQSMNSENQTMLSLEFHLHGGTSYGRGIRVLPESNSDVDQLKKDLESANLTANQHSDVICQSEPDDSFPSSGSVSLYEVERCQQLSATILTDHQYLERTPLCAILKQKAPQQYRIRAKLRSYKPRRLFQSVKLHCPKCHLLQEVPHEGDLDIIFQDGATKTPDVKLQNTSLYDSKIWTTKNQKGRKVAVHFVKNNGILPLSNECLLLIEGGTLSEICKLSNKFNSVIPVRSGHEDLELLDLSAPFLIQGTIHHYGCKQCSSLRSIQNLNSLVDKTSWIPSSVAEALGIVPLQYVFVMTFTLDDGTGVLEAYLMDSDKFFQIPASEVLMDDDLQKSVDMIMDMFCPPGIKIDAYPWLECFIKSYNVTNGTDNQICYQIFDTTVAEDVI

[6] = target: Telomerase reverse transcriptase (Homo sapiens, UniProt O14746); assay: Inhibition of human telomerase assessed as unincorporated [alpha32P]dGTP
[7] = species on record: Homo sapiens; assay: as §1
[8] = species on record: Homo sapiens; assay: Binding affinity to human telomeric d[5'G3(T2AG3]-3' DNA quadruplex assessed as major positive band at 292 nm at >1:1 drug to DNA ratio
[9] = species on record: Homo sapiens; assay: Binding affinity to human telomeric d[5'G3(T2AG3]-3' DNA quadruplex assessed as major positive band at 292 nm at 1:1 drug to DNA ratio
[10] = species on record: Homo sapiens; assay: Binding affinity to human telomeric d[5'G3(T2AG3]-3' DNA quadruplex assessed as major positive band at 292 nm at 2:1 drug to DNA ratio
[11] = species on record: Homo sapiens; assay: Induction of G-quadruplex structure formation in human telomeric d[5'G3(T2AG3]-3' DNA assessed as major positive band at 295 nm at 2 mole ligand concentration by CD spectroscopy

Telomerase reverse transcriptase, sequence (O14746 whole entry): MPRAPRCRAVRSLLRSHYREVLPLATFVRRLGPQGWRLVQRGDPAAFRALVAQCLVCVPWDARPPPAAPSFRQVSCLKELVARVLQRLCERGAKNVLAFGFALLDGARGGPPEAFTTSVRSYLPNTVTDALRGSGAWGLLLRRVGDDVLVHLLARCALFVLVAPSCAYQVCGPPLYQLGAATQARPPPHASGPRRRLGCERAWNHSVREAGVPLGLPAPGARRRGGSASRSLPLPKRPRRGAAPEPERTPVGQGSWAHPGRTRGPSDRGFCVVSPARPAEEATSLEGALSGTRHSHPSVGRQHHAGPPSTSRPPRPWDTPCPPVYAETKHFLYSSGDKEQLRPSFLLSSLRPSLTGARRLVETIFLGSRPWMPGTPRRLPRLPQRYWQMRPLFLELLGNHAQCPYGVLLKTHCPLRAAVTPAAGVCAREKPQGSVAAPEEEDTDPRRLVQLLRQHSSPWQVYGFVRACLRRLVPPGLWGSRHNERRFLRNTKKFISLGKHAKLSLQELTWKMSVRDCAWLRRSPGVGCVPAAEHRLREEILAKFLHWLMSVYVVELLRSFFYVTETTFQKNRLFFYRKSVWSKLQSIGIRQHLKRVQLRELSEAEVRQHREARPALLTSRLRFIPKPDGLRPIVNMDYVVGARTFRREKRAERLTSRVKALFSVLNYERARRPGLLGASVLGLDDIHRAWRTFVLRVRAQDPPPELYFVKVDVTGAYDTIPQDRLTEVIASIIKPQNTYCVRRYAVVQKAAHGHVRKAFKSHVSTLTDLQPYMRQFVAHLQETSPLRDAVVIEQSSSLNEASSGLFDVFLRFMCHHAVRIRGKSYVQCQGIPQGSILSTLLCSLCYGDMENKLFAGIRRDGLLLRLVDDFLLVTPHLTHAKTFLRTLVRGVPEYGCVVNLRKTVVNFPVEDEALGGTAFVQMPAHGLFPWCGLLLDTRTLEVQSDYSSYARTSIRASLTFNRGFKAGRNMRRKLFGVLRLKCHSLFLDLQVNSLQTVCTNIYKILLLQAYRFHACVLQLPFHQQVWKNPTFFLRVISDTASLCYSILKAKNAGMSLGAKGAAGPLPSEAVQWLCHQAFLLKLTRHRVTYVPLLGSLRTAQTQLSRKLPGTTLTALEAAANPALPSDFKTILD

Compound	Activity [1]	ΔTm [2] [°C]	EC50 [3] [µM]	EC50 [4] [µM]	IC50 [5] [µM]	IC50 [6] [µM]	Activity [7]	Activity [4]	Activity [8]	Activity [9]	Activity [10]	Activity [11]
O=C(CCN1CCCC1)Nc1ccc2c(NCCCCCCNc3c4ccc(NC(=O)CCN5CCCC5)cc4nc4cc(NC(=O)CCN5CCCC5)ccc34)c3ccc(NC(=O)CCN4CCCC4)cc3nc2c1	Active	23	0.85	4.5	17	4						
O=C(CCN1CCCC1)Nc1ccc2c(NCOCCOCNc3c4ccc(NC(=O)CCN5CCCC5)cc4nc4cc(NC(=O)CCN5CCCC5)ccc34)c3ccc(NC(=O)CCN4CCCC4)cc3nc2c1	Active	20	0.2	3.9	45	9	Dose-dependent effect	Dose-dependent effect	inactive	Active		
CN(C)c1ccc(Nc2c3ccc(NC(=O)CCN4CCCC4)cc3nc3cc(NC(=O)CCN4CCCC4)ccc23)cc1		18	1.8	19.1	63	5.4	Dose-dependent effect	Dose-dependent effect			Active	Active
O=C(CCN1CCCC1)Nc1ccc2c(NCNCCNCNc3c4ccc(NC(=O)CCN5CCCC5)cc4nc4cc(NC(=O)CCN5CCCC5)ccc34)c3ccc(NC(=O)CCN4CCCC4)cc3nc2c1	Active	28	0.071	0.36	11	7.5						
